# Experimental data as given in patent US9855268B2, “Triazolo[4,5-d]pyrimidine derivatives” (Merck Patent GmbH, priority 2013, dated 2018).
# What was measured:
# GCN2 [1] = biological target: T1, GCN2 (Homo sapiens, UniProt Q9P2K8); experiment: GCN2 enzyme assay (TR-FRET Lanthascreen, GFP-eIF2alpha phosphorylation); assay type: biochemical; details: 10 μM ATP, 80 nM GFP-eIF2a, 30 nM GCN2
# How it was run: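 Kinase reaction with 10 μM ATP and 80 nM GFP-labelled eIF2alpha substrate at room temperature, stopped with EDTA. Phospho-eIF2alpha detected by TR-FRET between antibody and GFP-substrate, excitation at 340 nm.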
# Target sequence in this assay (Q9P2K8 whole entry, species assumed): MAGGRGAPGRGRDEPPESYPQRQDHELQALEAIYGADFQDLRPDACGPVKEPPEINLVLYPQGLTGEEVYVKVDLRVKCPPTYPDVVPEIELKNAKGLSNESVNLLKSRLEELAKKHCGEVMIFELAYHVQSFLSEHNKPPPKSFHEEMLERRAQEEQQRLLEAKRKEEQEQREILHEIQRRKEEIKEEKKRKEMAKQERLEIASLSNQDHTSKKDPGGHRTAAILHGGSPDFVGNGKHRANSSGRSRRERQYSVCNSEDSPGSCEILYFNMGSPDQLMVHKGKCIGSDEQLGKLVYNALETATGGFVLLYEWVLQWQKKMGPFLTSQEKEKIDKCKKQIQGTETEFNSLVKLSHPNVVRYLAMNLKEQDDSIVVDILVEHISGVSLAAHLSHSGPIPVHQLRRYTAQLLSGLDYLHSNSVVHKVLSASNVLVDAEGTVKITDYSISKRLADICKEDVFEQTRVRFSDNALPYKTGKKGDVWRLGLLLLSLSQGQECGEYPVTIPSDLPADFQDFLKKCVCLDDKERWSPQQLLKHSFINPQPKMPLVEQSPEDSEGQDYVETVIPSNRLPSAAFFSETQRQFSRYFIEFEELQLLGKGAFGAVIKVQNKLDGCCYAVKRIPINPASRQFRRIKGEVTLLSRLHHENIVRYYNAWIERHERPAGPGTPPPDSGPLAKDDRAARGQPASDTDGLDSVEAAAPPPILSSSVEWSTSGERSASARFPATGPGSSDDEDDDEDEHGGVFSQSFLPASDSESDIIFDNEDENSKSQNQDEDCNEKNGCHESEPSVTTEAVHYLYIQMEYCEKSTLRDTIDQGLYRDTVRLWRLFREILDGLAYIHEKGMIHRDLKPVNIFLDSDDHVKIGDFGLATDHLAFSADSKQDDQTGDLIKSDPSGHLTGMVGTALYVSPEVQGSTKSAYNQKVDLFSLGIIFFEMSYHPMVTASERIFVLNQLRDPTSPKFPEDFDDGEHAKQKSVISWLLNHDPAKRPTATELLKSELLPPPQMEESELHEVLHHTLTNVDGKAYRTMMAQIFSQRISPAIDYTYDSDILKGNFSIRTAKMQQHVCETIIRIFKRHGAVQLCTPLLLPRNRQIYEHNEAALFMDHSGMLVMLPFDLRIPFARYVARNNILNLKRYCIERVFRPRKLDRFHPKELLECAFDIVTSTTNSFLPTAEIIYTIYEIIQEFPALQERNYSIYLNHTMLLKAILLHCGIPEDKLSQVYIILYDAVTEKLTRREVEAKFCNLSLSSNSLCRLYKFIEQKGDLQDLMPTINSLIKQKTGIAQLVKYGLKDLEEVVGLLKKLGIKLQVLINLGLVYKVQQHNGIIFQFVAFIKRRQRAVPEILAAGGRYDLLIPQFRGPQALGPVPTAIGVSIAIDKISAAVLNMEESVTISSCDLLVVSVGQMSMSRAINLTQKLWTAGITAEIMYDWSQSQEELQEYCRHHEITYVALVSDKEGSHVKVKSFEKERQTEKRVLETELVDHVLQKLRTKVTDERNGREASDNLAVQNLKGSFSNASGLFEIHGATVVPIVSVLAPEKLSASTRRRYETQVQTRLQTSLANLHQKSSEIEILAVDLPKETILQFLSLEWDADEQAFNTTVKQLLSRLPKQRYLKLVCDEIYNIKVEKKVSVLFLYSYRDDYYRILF
# GCN2 [2] = biological target: T1, GCN2; experiment: Cellular assay of GCN2 activity (phospho-eIF2alpha immunocytochemistry after tryptophanol); assay type: cell-based; design: endogenous in cells; host or cells: U2OS; details: Human U2OS cells, 2 h compound, 600 μM tryptophanol 30 min
# Method: Cellular Assay for the Determination of Compound Activities
# Human U2OS cells (2000 cells/well) are seeded into 384-well plates and incubated for 20 hours.
# The next day, the cells are treated with the test compounds and incubated for 2 hours. Then, tryptophanol, at a final concentration of 600 μM, is added to the cells and those are incubated for 30 minutes.
# The analysis of cellular GCN2 activities is done by immunocytochemistry.
# Briefly, cells are fixated on the well surfaces by formaldehyde and permeabilised with Triton X-100.
# The analysis and quantification of phosphorylated GCN2 is done by scanning the plates in the Acumen Explorer system (TTPLabtech). The obtained data are normalised against the untreated control wells (DMSO only) and expressed as % effect values. The determination of IC50 values is done by using the Graph Pad Prism software.
# Target sequence in this assay (Q9P2K8 whole entry): as the sequence (Q9P2K8 whole entry, species assumed) above
# GSK3α(h) = GSK3α(h) (Homo sapiens, UniProt P49840); experiment: GSK3α radiometric kinase assay (33P-ATP, phospho GS2 peptide); assay type: biochemical; details: read-out: IC50 GSK3α (enzyme assay)
# Method: GSK3α(h) is incubated with 8 mM MOPS pH 7,0, 0,2 mM EDTA, 20 μM
# […](p)EDEEE (phosphor GS2 peptide), 10 mM Mg-acetate and [gamma-33P-ATP](specific activity approx. 500 cpm/Pmol, concentration as required). The reaction is initiated by the addition of the MgATP. After incubation for 40 minutes at the room temperature, the Reaction is stopped by the addition of 3% phosphoric acid solution. 10 μL of reaction is then spotted onto a P30 filtermat and washed three times for 5 minutes in 50 mM phosphoric acid and once in methanol prior to drying and scintillation counting.
# GSK3α(h), sequence (P49840 whole entry): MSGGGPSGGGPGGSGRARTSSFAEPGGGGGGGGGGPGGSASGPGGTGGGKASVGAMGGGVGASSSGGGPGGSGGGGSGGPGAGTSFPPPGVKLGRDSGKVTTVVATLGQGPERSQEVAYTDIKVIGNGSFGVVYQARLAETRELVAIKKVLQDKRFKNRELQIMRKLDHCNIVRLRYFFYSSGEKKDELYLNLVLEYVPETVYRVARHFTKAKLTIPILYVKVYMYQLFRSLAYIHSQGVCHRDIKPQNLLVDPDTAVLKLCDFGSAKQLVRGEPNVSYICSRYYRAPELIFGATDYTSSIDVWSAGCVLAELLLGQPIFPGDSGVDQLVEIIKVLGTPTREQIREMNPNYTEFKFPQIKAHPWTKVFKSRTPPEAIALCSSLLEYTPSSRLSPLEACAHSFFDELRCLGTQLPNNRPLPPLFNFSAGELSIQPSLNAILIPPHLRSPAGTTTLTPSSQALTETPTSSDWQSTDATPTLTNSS
IC50 (GCN2 [1]) [nM],IC50 (GCN2 [2]) [nM],IC50 (GSK3α(h)) [nM],SMILES
< 1000,< 1000,< 1000,"COCCn1cc(-c2ccc(-n3nnc4cnc(N[C@@H]5CC[C@@H](N)C5)nc43)cc2)cn1 [A123, (1R,3R)—N-(3-{4-[1-(2-methoxy-ethyl)-1H-pyrazol-4-yl]-phenyl}-3H-[1,2,3]triazolo[4,5-d]pyrimidin-5-yl)-cyclopentane-1,3-diamine]"
< 1000,1000 to 5000,< 1000,"COc1ccc(-n2nnc3cnc(N[C@@H]4CC[C@@H](C(N)=O)C4)nc32)cc1 [A140, (1R,3R)-3-[3-(4-methoxy-phenyl)-3H-[1,2,3]triazolo[4,5-d]pyrimidin-5-ylamino]-cyclopentanecarboxylic acid amide]"
< 1000,5000 to 10000,< 1000,"N[C@H]1CC[C@H](Nc2ncc3nnn(-c4ccc(-c5cnn(CCn6cccn6)c5)cc4)c3n2)CC1 [A215, N-(3-{4-[1-(2-pyrazol-1-yl-ethyl)-1H-pyrazol-4-yl]-phenyl}-3H-[1,2,3]triazolo[4,5-d]pyrimidin-5-yl)-cyclohexane-1,4-diamine]"
< 1000,1000 to 5000,< 1000,"NC(=O)[C@H]1CC[C@@H](Nc2ncc3nnn(-c4ccc(-c5cnn(CCO)c5)cc4)c3n2)C1 [A258, (1S,3R)-3-(3-{4-[1-(2-hydroxy-ethyl)-1H-pyrazol-4-yl]-phenyl}-3H-[1,2,3]triazolo[4,5-d]pyrimidin-5-ylamino)-cyclopentanecarboxylic acid amide]"
< 1000,1000 to 5000,< 1000,"NC(=O)[C@H]1CC[C@@H](Nc2ncc3nnn(-c4ccc5ncccc5c4)c3n2)C1 [A189, (1S,3R)-3-(3-quinolin-6-yl-3H-[1,2,3]triazolo[4,5-d]pyrimidin-5-ylamino)-cyclopentanecarboxylic acid amide]"
< 1000,1000 to 5000,< 1000,"CN1CCN(CCNC(=O)[C@H]2CC[C@@H](Nc3ncc4nnn(-c5ccc6ncccc6c5)c4n3)C2)CC1 [A242, (1S,3R)-3-(3-quinolin-6-yl-3H-[1,2,3]triazolo[4,5-d]pyrimidin-5-ylamino)-cyclopentanecarboxylic acid [2-(4-methyl-piperazin-1-yl)-ethyl]-amide]"
< 1000,5000 to 10000,< 1000,"CN1CCN(CCC(=O)N2CC[C@@H](Nc3ncc4nnn(-c5ccc(-c6cnn(C)c6)cc5)c4n3)C2)CC1 [A131, 3-(4-methyl-piperazin-1-yl)-1-((R)-3-{3-[4-(1-methyl-1H-pyrazol-4-yl)-phenyl]-3H-[1,2,3]triazolo[4,5-d]pyrimidin-5-ylamino}-pyrrolidin-1-yl)-propan-1-one]"
< 1000,5000 to 10000,–,"NC(=O)[C@@H]1CC[C@@H](Nc2ncc3nnn(-c4ccc(O)cc4)c3n2)C1 [A276, (1R,3R)-3-[3-(4-hydroxy-phenyl)-3H-[1,2,3]triazolo[4,5-d]pyrimidin-5-ylamino]-cyclopentanecarboxylic acid amide]"
< 1000,1000 to 5000,< 1000,"COc1ccc(-n2nnc3cnc(N[C@@H]4CC[C@@H](C(=O)N5CCN(C)CC5)C4)nc32)cc1 [A241, {(1R,3R)-3-[3-(4-methoxy-phenyl)-3H-[1,2,3]triazolo[4,5-d]pyrimidin-5-ylamino]-cyclopentyl}-(4-methyl-piperazin-1-yl)-methanone]"
< 1000,1000 to 5000,–,"NC(=O)[C@@H]1CC[C@@H](Nc2ncc3nnn(-c4ccc(OC5CCOCC5)cc4)c3n2)C1 [A168, (1R,3R)-3-{3-[4-(tetrahydro-pyran-4-yloxy)-phenyl]-3H-[1,2,3]triazolo[4,5-d]-pyrimidin-5-ylamino}-cyclopentanecarboxylic acid amide]"
< 1000,1000 to 5000,–,"COCC(COC)Oc1ccc(-n2nnc3cnc(N[C@@H]4CC[C@@H](C(N)=O)C4)nc32)cc1 [A167, (1R,3R)-3-{3-[4-(2-methoxy-1-methoxymethyl-ethoxy)-phenyl]-3H-[1,2,3]triazolo[4,5-d]pyrimidin-5-ylamino}-cyclopentanecarboxylic acid amide]"
< 1000,1000 to 5000,< 1000,"O[C@@H]1CC[C@@H](Nc2ncc3nnn(-c4ccc(-c5cnn(CCN6CCCC6)c5)cc4)c3n2)C1 [A213, (1R,3R)-3-(3-{4-[1-(2-pyrrolidin-1-yl-ethyl)-1H-pyrazol-4-yl]-phenyl}-3H-[1,2,3]triazolo[4,5-d]pyrimidin-5-ylamino)-cyclopentanol]"
< 1000,5000 to 10000,–,"CCOc1ccc(-n2nnc3cnc(N[C@@H]4CC[C@@H](C(=O)N(C)CC(C)(C)O)C4)nc32)cc1 [A251, (1R,3R)-3-[3-(4-ethoxy-phenyl)-3H-[1,2,3]triazolo[4,5-d]pyrimidin-5-ylamino]-cyclopentanecarboxylic acid (2-hydroxy-2-methyl-propyl)-methyl-amide]"
< 1000,1000 to 5000,< 1000,"COc1ccc(-n2nnc3cnc(N[C@@H]4CC[C@@H](CO)C4)nc32)cc1 [A114, {(1R,3R)-3-[3-(4-methoxy-phenyl)-3H-[1,2,3]triazolo[4,5-d]pyrimidin-5-ylamino]-cyclopentyl}-methanol]"
< 1000,5000 to 10000,–,"O=c1cccnn1CCn1cc(-c2ccc(-n3nnc4cnc(N[C@@H]5CC[C@@H](O)C5)nc43)cc2)cn1 [A236, 2-[2-(4-{4-[5-((1R,3R)-3-hydroxy-cyclopentylamino)-[1,2,3]triazolo[4,5-d]-pyrimidin-3-yl]-phenyl}-pyrazol-1-yl)-ethyl]-2H-pyridazin-3-one]"
< 1000,5000 to 10000,–,"Cn1cc(-c2ccc(-n3nnc4cnc(N[C@@H]5CCNC5)nc43)cc2)cn1 [A116, {3-[4-(1-methyl-1H-pyrazol-4-yl)-phenyl]-3H-[1,2,3]triazolo[4,5-d]pyrimidin-5-yl}-(R)-pyrrolidin-3-yl-amine]"
< 1000,1000 to 5000,–,"N[C@H]1CC[C@H](Nc2ncc3nnn(-c4ccc(N5CCOCC5)cc4)c3n2)CC1 [A64, N-[3-(4-morpholin-4-yl-phenyl)-3H-[1,2,3]triazolo[4,5-d]pyrimidin-5-yl]-cyclohexane-1,4-diamine]"
< 1000,1000 to 5000,–,"NC(=O)[C@@H]1CC[C@@H](Nc2ncc3nnn(-c4ccc(I)cc4)c3n2)C1 [A170, (1R,3R)-3-[3-(4-iodo-phenyl)-3H-[1,2,3]triazolo[4,5-d]pyrimidin-5-ylamino]-cyclopentanecarboxylic acid amide]"
< 1000,1000 to 5000,–,"COCCn1cc(-c2ccc(-n3nnc4cnc(N[C@H]5CC[C@H](N)CC5)nc43)cc2)cn1 [A52, N-(3-{4-[1-(2-methoxy-ethyl)-1H-pyrazol-4-yl]-phenyl}-3H-[1,2,3]triazolo[4,5-d]-pyrimidin-5-yl)-cyclohexane-1,4-diamine]"
< 1000,1000 to 5000,–,"Cn1cc2cc(-n3nnc4cnc(N[C@@H]5CC[C@@H](C(N)=O)C5)nc43)ccc2n1 [A186, (1R,3R)-3-[3-(2-methyl-2H-indazol-5-yl)-3H-[1,2,3]triazolo[4,5-d]pyrimidin-5-ylamino]-cyclopentanecarboxylic acid amide]"
< 1000,1000 to 5000,–,"Cc1ccc2cc(-n3nnc4cnc(N[C@@H]5CC[C@H](C(N)=O)C5)nc43)ccc2n1 [A191, (1S,3R)-3-[3-(2-methyl-quinolin-6-yl)-3H-[1,2,3]triazolo[4,5-d]pyrimidin-5-ylamino]-cyclopentanecarboxylic acid amide]"
< 1000,5000 to 10000,–,"N[C@H]1CC[C@H](Nc2ncc3nnn(-c4ccc(N5CC[C@H](O)C5)cc4)c3n2)CC1 [A128, (S)-1-{4-[5-(4-amino-cyclohexylamino)-[1,2,3]triazolo[4,5-d]pyrimidin-3-yl]-phenyl}-pyrrolidin-3-ol]"
< 1000,1000 to 5000,–,"COC(=O)CCOc1ccc(-n2nnc3cnc(N[C@@H]4CC[C@@H](C(N)=O)C4)nc32)cc1 [A292, 3-{4-[5-((1R,3R)-3-carbamoyl-cyclopentylamino)-[1,2,3]triazolo[4,5-d]pyrimidin-3-yl]-phenoxy}-propionic acid methyl ester]"
< 1000,5000 to 10000,–,"N[C@H]1CC[C@H](Nc2ncc3nnn(-c4ccc(-c5cnn(CCO)c5)cc4)c3n2)CC1 [A256, 2-(4-{4-[5-(trans-4-amino-cyclohexylamino)-[1,2,3]triazolo[4,5-d]pyrimidin-3-yl]-phenyl}-pyrazol-1-yl)-ethanol]"
< 1000,1000 to 5000,–,"Cc1ccc2cc(-n3nnc4cnc(N[C@@H]5CC[C@@H](O)C5)nc43)ccc2n1 [A208, (1R,3R)-3-[3-(2-methyl-quinolin-6-yl)-3H-[1,2,3]triazolo[4,5-d]pyrimidin-5-ylamino]-cyclopentanol]"
